Read-outs that look alike come from different tables or passages of the source.
Key:
Bcrp [1] = assay: Intestinal and hepatic protein expression by western blotting; type: in vivo, rats
Slco1b2 = assay: Hepatic mRNA expression by RT-qPCR; type: in vivo, rats; conditions: rat liver
Cyp3a2 [2] = tested on: Cyp3a2
Cyp3a2 [3] = tested on: Cyp3a2; remark: listed apart in the source
OATP2B1 = assay: Intestinal protein expression by western blotting; type: in vivo, rats; conditions: rat small intestine
Mdr1 = conditions: for decrease in mRNA expression level of Mdr1: rat liver
P-gp = conditions: for decrease in protein expression level of P-gp: Que 100 mg/kg (high-dose) oral 7 days vs control
Mrp2 [4] = assay: Intestinal and hepatic protein expression by western blotting; type: in vivo, rats
Cyp3a1 [5] = tested on: Cyp3a1
Cyp3a1 [6] = tested on: Cyp3a1; remark: listed apart in the source
Ugt1a1 [7] = assay: Intestinal and hepatic mRNA expression by RT-qPCR; type: in vivo, rats
OATP1B2 = assay: Hepatic protein expression by western blotting; type: in vivo, rats; conditions: rat liver
Slco2b1 = assay: Intestinal mRNA expression by RT-qPCR; type: in vivo, rats; conditions: rat small intestine
Mrp2 [8] = assay: Intestinal and hepatic mRNA expression by RT-qPCR; type: in vivo, rats
Ugt1a1 [9] = assay: Intestinal and hepatic protein expression by western blotting; type: in vivo, rats
Bcrp [10] = assay: Intestinal and hepatic mRNA expression by RT-qPCR; type: in vivo, rats
[11] = rat liver, Que 25 mg/kg oral 7 days without CsA (Que-WOC) vs control
[12] = rat liver, Que 25 mg/kg with CsA 10 mg/kg oral 7 days (Que-WC) vs CsA alone
[13] = rat liver, Que 50 mg/kg oral 7 days without CsA (Que-WOC) vs control
[14] = rat liver, Que 50 mg/kg with CsA 10 mg/kg oral 7 days (Que-WC) vs CsA alone
[15] = rat liver, Que 100 mg/kg oral 7 days without CsA (Que-WOC) vs control
[16] = rat liver, Que 100 mg/kg with CsA 10 mg/kg oral 7 days (Que-WC) vs CsA alone
[17] = rat small intestine, Que 25 mg/kg oral 7 days without CsA (Que-WOC) vs control
[18] = rat small intestine, Que 50 mg/kg oral 7 days without CsA (Que-WOC) vs control
[19] = rat small intestine, Que 100 mg/kg oral 7 days without CsA (Que-WOC) vs control
[20] = Que 25 mg/kg oral 7 days without CsA (Que-WOC) vs control
[21] = Que 50 mg/kg oral 7 days without CsA (Que-WOC) vs control
[22] = Que 50 mg/kg with CsA 10 mg/kg oral 7 days (Que-WC) vs CsA treatment
[23] = Que 100 mg/kg oral 7 days without CsA (Que-WOC) vs control
[24] = Que 100 mg/kg with CsA 10 mg/kg oral 7 days (Que-WC) vs CsA treatment
[25] = rat liver, Que 25 mg/kg (low-dose) oral 7 days vs control
[26] = rat liver, Que 50 mg/kg (moderate-dose) oral 7 days vs control
[27] = rat liver, Que 100 mg/kg (high-dose) oral 7 days vs control
[28] = rat liver, Que 100 mg/kg with CsA 10 mg/kg oral 7 days (Que-WC) vs CsA treatment

decrease in mRNA expression level of Cyp3a2 (Cyp3a2 [2]; [11]): 21%
decrease in mRNA expression level of Cyp3a2 (Cyp3a2 [2]; [12]): 16%
decrease in mRNA expression level of Cyp3a2 (Cyp3a2 [2]; [13]): 37%
decrease in mRNA expression level of Cyp3a2 (Cyp3a2 [2]; [14]): 48%
decrease in mRNA expression level of Cyp3a2 (Cyp3a2 [2]; [15]): 49%
decrease in mRNA expression level of Cyp3a2 (Cyp3a2 [2]; [16]): 57%
decrease in mRNA expression level of Cyp3a2 (Cyp3a2 [2]; [17]): 61%
decrease in mRNA expression level of Cyp3a2 (Cyp3a2 [2]; [18]): 70%
decrease in mRNA expression level of Cyp3a2 (Cyp3a2 [2]; [19]): 90%
change in protein expression level of CYP3A2 (Cyp3a2 [3]; [25]): did not produce significant effects
change in protein expression level of CYP3A2 (Cyp3a2 [3]; [26]): did not produce significant effects
decrease in protein expression level of CYP3A2 (Cyp3a2 [3]; [27]): 73%
decrease in protein expression level of CYP3A2 (Cyp3a2 [3]; [16]): 54%
decrease in protein expression level of CYP3A2 (Cyp3a2 [3]; [17]): 14%
decrease in protein expression level of CYP3A2 (Cyp3a2 [3]; [18]): 40%
decrease in protein expression level of CYP3A2 (Cyp3a2 [3]; [19]): 95%
change in protein expression level of CYP3A1 (Cyp3a1 [5]; [25]): did not produce significant effects
change in protein expression level of CYP3A1 (Cyp3a1 [5]; [26]): did not produce significant effects
decrease in protein expression level of CYP3A1 (Cyp3a1 [5]; [27]): 70%
decrease in protein expression level of CYP3A1 (Cyp3a1 [5]; [16]): 56%
decrease in protein expression level of CYP3A1 (Cyp3a1 [5]; [17]): 17%
decrease in protein expression level of CYP3A1 (Cyp3a1 [5]; [18]): 45%
decrease in protein expression level of CYP3A1 (Cyp3a1 [5]; [19]): 91%
decrease in mRNA expression level of Cyp3a1 (Cyp3a1 [6]; [11]): 37%
decrease in mRNA expression level of Cyp3a1 (Cyp3a1 [6]; [12]): 31%
decrease in mRNA expression level of Cyp3a1 (Cyp3a1 [6]; [13]): 86%
decrease in mRNA expression level of Cyp3a1 (Cyp3a1 [6]; [14]): 77%
decrease in mRNA expression level of Cyp3a1 (Cyp3a1 [6]; [15]): 98%
decrease in mRNA expression level of Cyp3a1 (Cyp3a1 [6]; [16]): 65%
decrease in mRNA expression level of Cyp3a1 (Cyp3a1 [6]; [17]): 45%
decrease in mRNA expression level of Cyp3a1 (Cyp3a1 [6]; [18]): 83%
decrease in mRNA expression level of Cyp3a1 (Cyp3a1 [6]; [19]): 88%
SMILES: O=c1c(O)c(-c2ccc(O)c(O)c2)oc2cc(O)cc(O)c12 [Que, 3,3′,4′,5,7-pentahydroxyflavone]
decrease in protein expression level of BCRP (Bcrp [1]; [11]): 7%
decrease in protein expression level of BCRP (Bcrp [1]; [12]): 23%
decrease in protein expression level of BCRP (Bcrp [1]; [13]): 27%
decrease in protein expression level of BCRP (Bcrp [1]; [14]): 31%
decrease in protein expression level of BCRP (Bcrp [1]; [15]): 75%
decrease in protein expression level of BCRP (Bcrp [1]; [16]): 67%
decrease in protein expression level of BCRP (Bcrp [1]; [17]): 17%
decrease in protein expression level of BCRP (Bcrp [1]; [18]): 49%
decrease in protein expression level of BCRP (Bcrp [1]; [19]): 90%
decrease in mRNA expression level of Slco1b2 (Slco1b2; [20]): 79%
decrease in mRNA expression level of Slco1b2 (Slco1b2; Que 25 mg/kg with CsA 10 mg/kg oral 7 days (Que-WC) vs CsA treatment): 72%
decrease in mRNA expression level of Slco1b2 (Slco1b2; [21]): 92%
decrease in mRNA expression level of Slco1b2 (Slco1b2; [22]): 90%
decrease in mRNA expression level of Slco1b2 (Slco1b2; [23]): 95%
decrease in mRNA expression level of Slco1b2 (Slco1b2; [24]): 94%
change in protein expression level of OATP2B1 (OATP2B1; [20]): did not produce a significant effect
decrease in protein expression level of OATP2B1 (OATP2B1; [21]): 43%
decrease in protein expression level of OATP2B1 (OATP2B1; [23]): 76%
decrease in mRNA expression level of Mdr1 (Mdr1; [20]): 64%
decrease in mRNA expression level of Mdr1 (Mdr1; Que 25 mg/kg with CsA 10 mg/kg oral 7 days (Que-WC) vs CsA alone): 68%
decrease in mRNA expression level of Mdr1 (Mdr1; [21]): 87%
decrease in mRNA expression level of Mdr1 (Mdr1; Que 50 mg/kg with CsA 10 mg/kg oral 7 days (Que-WC) vs CsA alone): 68%
decrease in mRNA expression level of Mdr1 (Mdr1; [23]): 91%
decrease in mRNA expression level of Mdr1 (Mdr1; Que 100 mg/kg with CsA 10 mg/kg oral 7 days (Que-WC) vs CsA alone): 90%
change in mRNA expression level of Mdr1 (Mdr1; [17]): did not produce a significant effect
increase in mRNA expression level of Mdr1 (Mdr1; [18]): 75%
increase in mRNA expression level of Mdr1 (Mdr1; [19]): 80%
change in protein expression level of P-gp (P-gp; [25]): did not produce a significant effect
change in protein expression level of P-gp (P-gp; [26]): did not produce a significant effect
decrease in protein expression level of P-gp (P-gp; rat liver): 84%
decline in protein expression level of P-gp (P-gp; [28]): 76%
change in protein expression level of P-gp (P-gp; rat small intestine, Que 25 mg/kg (low-dose) oral 7 days vs control): did not produce a significant effect
change in protein expression level of P-gp (P-gp; rat small intestine, Que 50 mg/kg (moderate-dose) oral 7 days vs control): did not produce a significant effect
decrease in protein expression level of P-gp (P-gp; rat small intestine): 81%
decrease in protein expression level of MRP2 (Mrp2 [4]; [11]): 14%
decrease in protein expression level of MRP2 (Mrp2 [4]; rat liver, Que 25 mg/kg with CsA 10 mg/kg oral 7 days (Que-WC) vs CsA treatment): 22%
decrease in protein expression level of MRP2 (Mrp2 [4]; [13]): 27%
decrease in protein expression level of MRP2 (Mrp2 [4]; rat liver, Que 50 mg/kg with CsA 10 mg/kg oral 7 days (Que-WC) vs CsA treatment): 23%
decrease in protein expression level of MRP2 (Mrp2 [4]; [15]): 58%
decrease in protein expression level of MRP2 (Mrp2 [4]; [28]): 35%
decrease in protein expression level of MRP2 (Mrp2 [4]; [17]): 13%
decrease in protein expression level of MRP2 (Mrp2 [4]; [18]): 45%
decrease in protein expression level of MRP2 (Mrp2 [4]; [19]): 93%
decrease in mRNA expression of Ugt1a1 (Ugt1a1 [7]; [11]): 41%
decrease in mRNA expression level of Ugt1a1 (Ugt1a1 [7]; [12]): 28%
decrease in mRNA expression of Ugt1a1 (Ugt1a1 [7]; [13]): 81%
decrease in mRNA expression level of Ugt1a1 (Ugt1a1 [7]; [14]): 71%
decrease in mRNA expression of Ugt1a1 (Ugt1a1 [7]; [15]): 92%
decrease in mRNA expression level of Ugt1a1 (Ugt1a1 [7]; [16]): 92%
decrease in mRNA expression of Ugt1a1 (Ugt1a1 [7]; [17]): 20%
decrease in mRNA expression of Ugt1a1 (Ugt1a1 [7]; [18]): 76%
decrease in mRNA expression of Ugt1a1 (Ugt1a1 [7]; [19]): 84%
change in protein expression level of OATP1B2 (OATP1B2; [20]): did not produce a significant effect
decrease in protein expression level of OATP1B2 (OATP1B2; [21]): 48%
decrease in protein expression level of OATP1B2 (OATP1B2; [22]): 38%
decrease in protein expression level of OATP1B2 (OATP1B2; [23]): 86%
decrease in protein expression level of OATP1B2 (OATP1B2; [24]): 72%
decrease in mRNA expression level of Slco2b1 (Slco2b1; [20]): 84%
decrease in mRNA expression level of Slco2b1 (Slco2b1; [21]): 92%
decrease in mRNA expression level of Slco2b1 (Slco2b1; [23]): 97%
decrease in mRNA expression level of Mrp2 (Mrp2 [8]; [11]): 45%
decrease in mRNA expression level of Mrp2 (Mrp2 [8]; [12]): 38%
decrease in mRNA expression level of Mrp2 (Mrp2 [8]; [13]): 52%
decrease in mRNA expression level of Mrp2 (Mrp2 [8]; [14]): 36%
decrease in mRNA expression level of Mrp2 (Mrp2 [8]; [15]): 98%
decrease in mRNA expression level of Mrp2 (Mrp2 [8]; [16]): 99%
decrease in mRNA expression level of Mrp2 (Mrp2 [8]; [17]): 45%
decrease in mRNA expression level of Mrp2 (Mrp2 [8]; [18]): 69%
decrease in mRNA expression level of Mrp2 (Mrp2 [8]; [19]): 96%
decrease in protein expression level of UGT1A1 (Ugt1a1 [9]; [11]): 16%
change in protein expression level of UGT1A1 (Ugt1a1 [9]; [12]): did not produce significant effects
decrease in protein expression level of UGT1A1 (Ugt1a1 [9]; [13]): 42%
change in protein expression level of UGT1A1 (Ugt1a1 [9]; [14]): did not produce significant effects
decrease in protein expression level of UGT1A1 (Ugt1a1 [9]; [15]): 87%
decrease in protein expression level of UGT1A1 (Ugt1a1 [9]; [16]): 72%
decrease in protein expression level of UGT1A1 (Ugt1a1 [9]; [17]): 12%
decrease in protein expression level of UGT1A1 (Ugt1a1 [9]; [18]): 41%
decrease in protein expression level of UGT1A1 (Ugt1a1 [9]; [19]): 91%
decrease in mRNA expression level of Bcrp (Bcrp [10]; [11]): 55%
decrease in mRNA expression level of Bcrp (Bcrp [10]; [12]): 68%
decrease in mRNA expression level of Bcrp (Bcrp [10]; [13]): 77%
decrease in mRNA expression level of Bcrp (Bcrp [10]; [14]): 77%
decrease in mRNA expression level of Bcrp (Bcrp [10]; [15]): 88%
decrease in mRNA expression level of Bcrp (Bcrp [10]; [16]): 89%
decrease in mRNA expression level of Bcrp (Bcrp [10]; [17]): 46%
decrease in mRNA expression level of Bcrp (Bcrp [10]; [18]): 70%
decrease in mRNA expression level of Bcrp (Bcrp [10]; [19]): 92%

Reference: article PMC5042751 (Molecular Medicine Reports, 2016)
